Data taken from patent US7029879B1, “Iodine uptake restoration in thyroid cancer” (University of Kentucky Research Foundation, priority 1999, dated 2006).

Experiments:
[1] = test system: hNIS gene regions P (promoter), L (leader), C (coding); test: Methylation-specific PCR of hNIS gene regions in treated cell lines; assay type: cell-based, human
Experimental: (§1) Cell lines, for evaluation of iodide-uptake and hNIS expression, were grown in phenol-red-free RPMI 1640 with 5% fetal bovine serum (FBS), 100 nM sodium selenite and 0.1 nM bovine TSH (basal medium) (20). They were plated at a density of 3–5×10^4 cells/9.4 cm^2, in triplicate in basal medium, and grown for 2–3 days at 37° C. in 5% CO2. They were treated with dimethylsulfoxide (DMSO, 25 μM daily for 3 days), sodium butyrate (0.5 or 1.0 mM), phenylacetate (pH 7.0, 5 or 10 mM) or 5-azacytidine (0.5 or 1.0 μM, in 25 μM DMSO, daily for 3 days) until control cells were 80% confluent (3–4 days), then changed to fresh basal medium and grown for an additional 24 hrs.
This method utilizes PCR primer pairs to distinguish methylated from unmethylated DNA in bisulfite-modified target DNA, in which bisulfite converts unmethylated cytosines to uracil (23,24). Genomic DNAs, from normal and tumoral human thyroid tissues and cell lines, were isolated by standard techniques (21) and 1.0 μg aliquots were denatured by NaOH (10 min at 37° C.), then treated with 10 mM hydroquinone and 3.0 M sodium bisulfite (pH 5.0 under mineral oil for 16 hrs at 50° C.). Modified DNA was purified on a resin column (Qiagen) and further treated with 0.3 N NaOH for 5 min prior to ethanol precipitation. The PCR mixture contained 16.6 mM ammonium sulfate, 67 mM Tris-HCl (pH 8.8), 6.7 mM MgCl2, 10 mM β-mercaptoethanol, 1.25 mM dNTPs, 0.2 μL TaqStart antibody, 1 U AmpliTaq DNA polymerase, 10 pmoles each of sense and antisense methylation-specific primers, and […] of bisulphite-modified DNA target. Primers used for analysis of the hNIS promoter CpG island methylation were selected for cytosine-rich regions, containing CpG dinucleotides near the 3′ end of the primers, hNIS-MET-P (sense, 5′ to 3′, TTAGGTTTGGAGGCGGA GTCGC (SEQ ID NO. 7) and antisense, 5′ to 3′, ACCGACTATCTATCCCT CTCCCTAAACG) (SEQ ID NO. 8) for a 143 bp product from methylated DNA and hNIS-UNMET-P (sense, 5′ to 3′, […] GAGTTGT (SEQ ID NO. 9) and antisense, 5′ to 3′, […] CCTAAACA) (SEQ ID NO. 10) for a 151 bp product from unmethylated genomic DNA. Additional sets of primers were similarly designed to analyze further downstream elements. They were: hNIS-MET-L (sense, […] (SEQ ID NO. 11) and antisense, GACCT CCATAAAAACGAATACG) (SEQ ID NO. 12) for a 265 bp product, with hNIS-UNMET-L (sense, […] (SEQ ID NO. 13), and antisense, […]) (SEQ ID NO. 14), for a 275 bp product, hNIS-MET-C (sense, […] (SEQ ID NO. 15) and antisense, […]) (SEQ ID NO. 16) for a 242 bp product, and hNIS-UNMET-C (sense, […] (SEQ ID NO. 17), and antisense, […]) (SEQ ID NO. 18), for a 252 bp product. The amplification conditions were: Taq polymerase activation at 95° C. for 5 min, 40 cycles of: denaturation at 94° C. for 20 s, annealing at 60° C. for 30 s and polymerization at 72° C. for 30 s. MS-PCR products were resolved by agarose gel electrophoresis and visualized by ethidium bromide staining and UV transillumination.

TTF-1 mRNA = TTF-1 mRNA expression by RT-PCR in treated cell lines; assay type: cell-based, human; conditions: for induction of TTF-1 mRNA expression: KAT-5 and KAT-10 (basal TTF-1 undetectable)
Experimental: as §1
Total RNA and genomic DNA from: normal human thyroid, thyroid tumors, and cell lines (treated with agents described above), were isolated by the acid-guanidinium-phenol-chloroform method (21). All surgical samples were snap-frozen and stored at −80° C. until processed by homogenization in Trizol reagent (Life Technologies, Gaithersburg, Md.) while still frozen. Complementary DNA (cDNA) was synthesized from 1.0 μg of total RNA using MMLV reverse transcriptase (RT) with random-hexamer primers (Clontech, Palo Alto, Calif.). Each 50 μL polymerase chain reaction (PCR) vessel contained: 60 mM Tris HCl, pH 9.0, 15 mM ammonium sulfate, 3.5 mM MgCl2 (1.5 mM for hTTF-1), 250 μM dNTPs (Boehringer-Mannheim, Indianapolis, Ind.), 0.2 μM each primer pair, 1 U AmpliTaq DNA polymerase (Perkin-Elmer, Norwalk, Conn.), 0.2 μg TaqStart Antibody (Clontech) and 3% cDNA. β-actin amplification (primers, Stratagene, La Jolla, Calif.) confirmed cDNA integrity, purity, and template equivalence for semiquantification. PCR primers (upstream 5′ to 3′/downstream 5′ to 3′, in all cases) used for amplification were, for hNIS (5), CTGCCCCAGACCAGTACAT GCC (SEQ ID NO. 1)/[…] (SEQ ID NO. 2) (to amplify a coding region spanning four introns (4) yielding a 303 bp product from cDNA) and for Pax-8, […] (SEQ ID NO. 3)/[…] (SEQ ID NO. 4)((22) to amplify a 329 bp product). Amplification conditions for hNIS and Pax-8 were: denaturation (95° C.×5 min); 40 cycles of 20 sec at 95° C. and 60 sec at 68° C.; followed by extension at 72° C. for 3 min. The hTTF-1 product was amplified with intron spanning primers, […] (SEQ ID NO. 5)/[…] (SEQ ID NO. 6), which amplify a 263 bp fragment. The conditions were: 95° C. for 5 min; 45 cycles of 95° C. for 20 sec, 60° C. for 60 sec, and 72° C. for 30 sec; followed by extension at 72° C. for 3 min. The RT-PCR products were resolved on 2% agarose gels and visualized by ethidium bromide staining.

[2] = KAT-5, high: AzaC 1.0 μM, PhAc 10 mM
[3] = NPA'87, high: AzaC 1.0 μM, NaB 1.0 mM

Nc1ncn([C@@H]2O[C@H](CO)[C@@H](O)[C@H]2O)c(=O)n1 [AzaC, 5-azacytidine]
methylation at the L and C regions after treatment ([1]; KAK-1, KAT-5, KAT-10 and NPA'87 (all four cell lines)): decreased methylation
Methylation Status by Region C ([1]; KAK-1, high: AzaC 1.0 μM): −
Methylation Status by Region L ([1]; KAK-1, high: AzaC 1.0 μM): −
Methylation Status by Region P ([1]; KAK-1, high: AzaC 1.0 μM): −
Methylation Status by Region C ([1]; KAK-1, low: AzaC 0.5 μM): −
Methylation Status by Region L ([1]; KAK-1, low: AzaC 0.5 μM): −
Methylation Status by Region P ([1]; KAK-1, low: AzaC 0.5 μM): −
Methylation Status by Region C [1, 2]: −
Methylation Status by Region L [1, 2]: −
Methylation Status by Region P [1, 2]: −
susceptibility to demethylation effects in the C region ([1]; KAT-5 and KAT-10 cells, C region compared with L region): less than that of the L region
Methylation Status by Region C ([1]; KAT-10, low: AzaC 0.5 μM): −
Methylation Status by Region L ([1]; KAT-10, low: AzaC 0.5 μM): −
Methylation Status by Region P ([1]; KAT-10, low: AzaC 0.5 μM): −
effect on methylation status of the P region ([1]; MRO87, WRO82 and KAT-7): did not affect the baseline demethylated status
demethylation of region C in response to treatment ([1]; MRO87, WRO82 and KAT-7, except minimal unmethylated product for WRO82): did not become demethylated
Methylation Status by Region C [1, 3]: −
Methylation Status by Region L [1, 3]: −
Methylation Status by Region P [1, 3]: −
TTF-1 mRNA (TTF-1 mRNA; KAK-1, high: AzaC 1.0 μM): +
TTF-1 mRNA (TTF-1 mRNA; KAK-1, low: AzaC 0.5 μM): +
TTF-1 mRNA (TTF-1 mRNA; [2]): +
induction of TTF-1 mRNA expression (TTF-1 mRNA): induced
TTF-1 mRNA (TTF-1 mRNA; KAT-10, low: AzaC 0.5 μM): +
TTF-1 mRNA (TTF-1 mRNA; [3]): +

CCCC(=O)[O-].[Na+] [NaB, sodium butyrate]
Methylation Status by Region C ([1]; KAT-10, high: NaB 1.0 mM): +
Methylation Status by Region L ([1]; KAT-10, high: NaB 1.0 mM): +
Methylation Status by Region P ([1]; KAT-10, high: NaB 1.0 mM): −
Methylation Status by Region C [1, 3]: +
Methylation Status by Region L [1, 3]: +
Methylation Status by Region P [1, 3]: −
effect on baseline methylation patterns in all three regions ([1]; NPA'87 and KAT-10): failed to demonstrate effects on altering baseline methylation patterns
induction of TTF-1 mRNA expression (TTF-1 mRNA): did not have such an effect in either of the cell lines
TTF-1 mRNA (TTF-1 mRNA; KAT-10, high: NaB 1.0 mM): −
TTF-1 mRNA (TTF-1 mRNA; [3]): +
